Here are results for 9 compounds from patent US8501803B2, “Garcinia derivative, its preparing method and medicinal use” (China Pharmaceutical University, priority 2010, dated 2013).

As a reminder, the melting point is the temperature, or range, at which the solid turns liquid. In general, IC50 refers to the concentration at which inhibition is half-maximal.

In data set [1] the test system is MCF-7 cells (human breast cancer cells). Nature of the data set: MTT antiproliferative test on MCF-7 cells. To be noted: MCF7, 96 h, 4 days culture, MCF-7 human breast cancer cells, read-out: MCF-7 cell IC50. The class given is cell-based. As to the method:
(§1) Test method: The cells of log phase are cultivated in the culture plate with 96 pores, and each pore contains 100 μL of solution (including 1000-1200 tumor cells). The next day, different concentrations of the present compound are added to the treatment groups, each compound contains 4 to 5 dosage groups, and each dosage group contains at least 3 parallel pores. The solvent with an equivalent volume of the said compound is added to the control groups. The said culture plate is then placed in a 5% CO2 incubator, cultured at 37° C., and the culture solution is discharged 4 days later. Next, 200 μL of the 0.2% MTT solution (RPMI1640 preparation) is added to each pore and incubated at 37° C. for 4 hours; the obtained supernatant is discharged; and 150 μL of DMSO is added to each pore so as to dissolve formazane particles. After slightly shaking the mixture, the optical density (OD) is measured by the ELIASA in the conditions of a resulting reference wavelength 450 nm and a detection wavelength 570 nm. The tumor cells treated with solvent are used as control groups, and the inhibition rate of the drugs against the tumor cells and IC50 are calculated according to the following equation. […] The MCF-7 cells are human breast cancer cells and the BGC-823 cells are human gastric carcinoma cells.
On the technique in general: Formazan colour is commonly taken as a measure of viable cells.

Data set [2] deals with BGC-823 cells (human gastric carcinoma cells). The data set can be described thus: MTT antiproliferative test on BGC-823 cells. The class given is cell-based. To be noted: 96 h, 4 days culture, BGC-823 human gastric carcinoma cells, read-out: BGC-823 cell IC50. As to the method: as §1

As to `CC(C)=CCC12OC(C)(C)C3CC(C=C4C(=O)c5cc(O)ccc5OC431)C2=O` (stereo not drawn), the melting point was in the range of 158 to 159 °C.

For `CC(C)=CCC12OC(C)(C)C3CC(C=C4C(=O)c5cccc(O)c5OC431)C2=O` (stereo not drawn), the melting point lay within 203 to 205 °C.

In the case of `CC(C)=CCC12OC(C)(C)C3CC(C=C4C(=O)c5c(O)cccc5OC431)C2=O` (stereo not drawn) [CPUY I-1, 3,3a,4,5-tetrahydro-3,3-dimethyl-1-(3-methyl-2-butenyl)-8-hydroxyl-1,5-dimethylene-1H,7H-furan[3,4-d]xanthene-7,13-diketone], the figures for the IC50 in data set [1] and in data set [2] were 9.16 µM and 3.59 µM, respectively.

With `CC(C)=CCC12OC(C)(C)C3CC(C=C4C(=O)c5ccc(O)cc5OC431)C2=O` (stereo not drawn) [CPUY I-2, 3,3a,4,5-tetrahydro-3,3-dimethyl-1-(3-methyl-2-butenyl)-10-hydroxyl-1,5-dimethylene-1H,7H-furan[3,4-d]xanthene-7,13-diketone], the melting point was in the range of 197 to 199 °C. Besides, in data set [1], the IC50 is 12.4 µM. Also, in data set [2], the IC50 is 17.6 µM.

Turning to `CC(C)=CCc1c(O)ccc2c1OC13C(=CC4CC1C(C)(C)OC3(CC=C(C)C)C4=O)C2=O` (stereo not drawn) [CPUY I-5, 3,3a,4,5-tetrahydro-3,3-dimethyl-1,11-bis(3-methyl-2-butenyl)-10-hydroxyl-1,5-dimethylene-1H,7H-furan[3,4-d]xanthene-7,13-diketone], the melting point fell in the range of 158 to 160 °C. Besides, in data set [1], the IC50 worked out at 5.79 µM. In addition, the IC50 in data set [2] stood at 15 µM.

In the case of `CC(C)=CCc1c(O)ccc2c1C(=O)C1=CC3CC4C(C)(C)OC(CC=C(C)C)(C3=O)C14O2` (stereo not drawn) [CPUY I-6, 3,3a,4,5-tetrahydro-3,3-dimethyl-1,8-bis(3-methyl-2-butenyl)-9-hydroxyl-1,5-dimethylene-1H,7H-furan[3,4-d]xanthene-7,13-diketone], the melting point lay within 138 to 139 °C. In addition, the IC50 in data set [1] was 11.9 µM. The IC50 in data set [2] worked out at 21.7 µM.

In turn, `CC(C)=CCc1cc2c(cc1O)C(=O)C1=CC3C4CC1(O2)C(=O)C3(CC=C(C)C)OC4(C)C` (stereo not drawn) [CPUY I-7, 1,3a,4,11a-tetrahydro-3,3-dimethyl-1,7-bis(3-methyl-2-butenyl)-8-hydroxyl-3H-1,4-a-dimethylene-10H-furan[3,4-b]xanthene-10,12-diketone] yielded a melting point of 148 to 150 °C. In data set [1], the half-maximal inhibitory concentration (IC50) is 10.9 µM. Further, in data set [2], the IC50 worked out at 18.2 µM.

`CC(C)=CCc1ccc2c(c1O)OC13C(=CC4CC1C(C)(C)OC3(CC=C(C)C)C4=O)C2=O` (stereo not drawn) [CPUY I-8, 3,3a,4,5-tetrahydro-3,3-dimethyl-1,10-bis(3-methyl-2-butenyl)-11-hydroxyl-1,5-dimeth ylene-1H,7H-furan[3,4-d]xanthene-7,13-diketone]: the melting point was 157 to 158 °C. In data set [1], the IC50 came to 9.06 µM. Also, the IC50 in data set [2] worked out at 11.3 µM.

On to `CC(C)=CCC[C@]1(C)C=Cc2c(O)c3c(c(CC=C(C)C)c2O1)O[C@]12C(=C[C@@H]4C[C@H]1C(C)(C)O[C@@]2(C/C=C(/C)C(=O)O)C4=O)C3=O` [Gambogic acid, gambogic acid, reference compound], for which the results for the IC50 in data set [1] and in data set [2] were 2.19 µM and 2.35 µM, respectively.
